Values of other authors, collected in US20070098710A1, “Anxiolytic composition comprising essential oil derived from plants as active ingredients, anxiolytic comprising thereof, and a producing method thereof” (NATURE TECHNOLOGY, INC., priority 2004, published 2007).

Experiments:
male ICR mice = conditions: mouse, administered previously

| SMILES | change of the emotionality (inhibition of looking into hole) by restraint stress (male ICR mice) | solubility in ethanol (ethanol) | solubility in water (water) |
| --- | --- | --- | --- |
| CN1C(=O)CN=C(c2ccccc2)c2cc(Cl)ccc21 [diazepam] | improved | – | – |
| CC1CCC(C(C)C)C(O)C1 (stereo not drawn) [l-menthol, 5-methyl 2-(1-methylethyl)cyclohexanol] | – | soluble in ethanol | insoluble in water |
